Assay results: the METLIN SMRT retention time set (Domingo-Almenara et al. 2019)

Experiment: gradient 5% acetonitrile 3 min, to 50% in 2 min, to 85% in 15 min, held 3 min, 100 µL/min
Conditions: column: Zorbax Extend-C18 2.1 x 50 mm; eluents: water / acetonitrile, 0.1% formic acid
In short: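 Values are retention times taken from adduct peaks that software picked and an analyst inspected. The pure standards were run as mixtures of ~100 molecules on HPLC linked to a quadrupole time-of-flight mass spectrometer, in positive and negative ionization mode. A Zorbax Extend-C18 column (2.1 × 50 mm, 1.8 μm) was used at 100 μL/min with water and acetonitrile, each including 0.1% formic acid.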

Compound	RP-LC retention time [s]
CN1CCN(CCC(=O)N2CCC(c3c[nH]c4ccccc34)(c3c[nH]c4ccccc34)CC2)CC1	625
CC(C)CCNC(=O)c1c2c(cn(-c3ccccc3)c1=O)C(=O)CC(C)(C)C2	1030
CN(C)S(=O)(=O)c1ccc(-c2nnc(C(=O)NC3CCCCCC3)o2)cc1	926
Cc1nnc(-c2ccc3ccn(CC(=O)N4CCN(c5cc(Cl)ccc5C)CC4)c3c2)o1	1020
Nc1nnc(SCC(=O)Nc2nc(-c3ccccc3)cs2)s1	751
O=C(NCC1CCCO1)c1cn(-c2cc(N3CCSCC3)ncn2)cn1 (centres undefined)	717
CC1CCN(C(=O)C2CCCN(c3ncnc4c3nc3n4CCCCC3)C2)CC1 (centres undefined)	793
CCCNC(=O)C1CCN(c2cc(SCC(=O)Nc3ccc(OC)cc3)ncn2)CC1	692
O=C(c1ccsc1)N(CCc1cccs1)C1CC1	853
CCCn1c(=O)sc2cc(S(=O)(=O)N3CCC(C(=O)NCc4cccnc4)CC3)ccc21	643
COC(=O)c1ccc(NC(=O)c2c(O)c3cccnc3n(-c3ccc(F)cc3)c2=O)cc1	1210
Cc1ccc(S(=O)(=O)N(C)CC2CCOC2)cc1F (centres undefined)	849
CCc1nc(-c2c(C)cc(C)nc2NC(=O)c2ccc(C)c(F)c2)no1	883
COc1cccc(CNC(=O)CCc2c(-c3ccc(Br)cc3)nc3ccccn23)c1	698
O=C(Cc1ccc(F)cc1)NCCCn1cccc1	746
Cc1nnc2ccc(N3CCC(C(=O)N4CCN(c5cccc(Cl)c5)CC4)CC3)nn12	860
Cc1ccccc1CNC(=O)c1ccc2c(c1)nc1n2CCN(C2CCCCC2)C1=O	836
CCCCC(=O)Nc1nnc(SCc2nnc(-c3ccc4c(c3)OCO4)o2)s1	859
O=C(Nc1nc(-c2cccs2)cs1)c1cccc([N+](=O)[O-])c1	936
COc1cccc(NC(=O)CCC2CCN(c3cc(NC4CC4)ncn3)CC2)c1	674
COc1cccc(-c2cn3ccn(-c4ccc(F)c(Cl)c4)c(=O)c3n2)c1	859
CCC(CC)C(=O)NCC(c1ccc(Br)cc1)c1c[nH]c2ccccc12 (centres undefined)	945
O=C(c1ccco1)N1CCc2nc(OCC3CC3)ccc2C1	821
Cc1csc(-c2cc(S(=O)(=O)NCCCc3ccccc3)c(C)s2)n1	1080

Compound	RP-LC retention time [s]
COc1ccc(-c2nnc(-c3ccc(OC)c(S(=O)(=O)N4CCCCC4)c3)o2)cc1OC	922
CCCn1ccc2oc(C)c(C(=O)NCc3ccc(Cl)cc3)c2c1=O	814
O=C(Nc1ccccc1Cl)NC1CCCN(c2cc(-c3ccncc3)[nH]n2)C1 (centres undefined)	582
Cc1ccc(C)c2sc(N(C)CC(=O)NCCn3nc(-c4ccco4)ccc3=O)nc12	784
Nc1nc(Cl)nc2c1ncn2[C@H]1C[C@H](O)[C@@H](CO)O1	593
O=c1c2nc(-c3ccc(F)cc3)cn2ccn1-c1ccc2c(c1)CCC2	945
NC(=O)C1CCN(C(=O)c2ccc3c(c2)CCN3S(=O)(=O)c2ccc(Cl)cc2)CC1	711
COC[C@@H]1CN(S(=O)(=O)c2ccccc2)C[C@H]1c1ccncc1	624
CCOC(=O)c1ccc(Nc2c(-c3cccc(Br)c3)nc3cnccn23)cc1	986
Cc1cc(CN2CC(F)(F)C[C@H]2c2nnc(-c3ccccc3)o2)n(C)n1	806
CC(C)NC(=O)c1ccc(OCC2CCCN(C(=O)c3ccccc3)C2)cc1 (centres undefined)	825
COc1cc(NS(=O)(=O)c2ccc3c(c2)-c2oncc2CO3)cc(OC)c1	884
CCSc1nc2ccc(NS(=O)(=O)Cc3cc(F)cc(F)c3)cc2s1	1020
CCc1noc(-c2cccnc2N2CCCN(Cc3c(F)cccc3Cl)CC2)n1	668
CCCC(NC(=O)Cc1ccc(Cl)cc1)C(=O)Nc1nc2ccccc2[nH]1 (centres undefined)	753
NCC(=O)Nc1ccc(Cl)cc1C(=O)c1ccc[nH]1	665
O=C(Nc1cc(-c2ccsc2)no1)c1ccc(C(F)(F)F)cc1	1060
CCOC(=O)c1cn(CC(=O)N2CCOc3ccc(C)cc32)c2nc(C)ccc2c1=O	836
COc1ccc(-c2noc(Cc3nnc(-c4cccc(C)c4)o3)n2)cc1OC	945
Nc1nc(Nc2ccccc2F)nc2ccccc12	600
Cc1ccc(C(=O)NC2CCCCCC2)cc1NC(=O)C1=CSCCO1	892
Cc1cc2c(cc1CNC(=O)Cn1c(C(F)(F)F)nc3cc4c(cc31)OCCO4)OCCCO2	851
Cc1oc(C2CCN(C(=O)Nc3ccccc3F)CC2)nc1C(=O)N1CCCC1	753
CCOC(=O)c1ccc(NC(=O)Cn2c(=O)c(CCC(=O)NC)nc3ccccc32)cc1	1260

Second part, the compound after the results:

RP-LC retention time [s]	Compound
1320	COc1ccc(-n2c(=O)c(C(=O)Nc3ccc(F)cc3Cl)c(O)c3cccnc32)cc1
578	CCNC(=O)N1CCCC(Cn2cnc3cccnc32)C1 (centres undefined)
753	Cc1ccc2c(=O)c(C(=O)N3CCCCC3)cn(CC(=O)NCc3ccccc3)c2n1
774	Cc1ccccc1Nc1c(-c2c(F)cccc2Cl)nc2c(C)cccn12
595	O=C(Cn1c(=O)c2cccn2c2ccccc21)NCCCN1CCCCC1
712	O=C(O)CCc1conc1-c1ccccc1F
706	Cc1cnc(C(=O)NCC2Cn3cccc3C(=O)N2CC(C)C)cn1 (centres undefined)
794	CCOc1ccccc1OCC(=O)c1ccc(O)cc1O
890	O=C1NC2(CCN(C(=O)Nc3ccc(F)cc3)CC2)N=C1c1ccc(Cl)cc1
605	CCc1nc2c(c(=O)n1CC(=O)NC(C)(C)C)CN(Cc1ccccc1)CC2
641	CCCN1C(=O)C(CC(=O)N2CCOCC2)Sc2ncccc21 (centres undefined)
674	CCc1cc(=O)n(CC(=O)N(C)c2ccccc2)c(N2CCOCC2)n1
1070	CCn1cc(-c2nc(C(=O)NCc3ccccc3Cl)cs2)c2cccnc21
824	CN(C)S(=O)(=O)c1ccc(Oc2ccc(S(=O)(=O)N(C)C)cc2)cc1
632	CCOC(=O)Cc1csc(NC(=O)CSc2nnc(-c3ccncc3)o2)n1
854	Cc1cc(C)c(S(=O)(=O)N2CCC3(CC2)NCCN=C3NCc2ccccc2C)c(C)c1
1150	CCCN(CCC)C(=O)c1cc2c(s1)N(C)CCCC2
1030	CC1CCN(S(=O)(=O)c2ccc3nn(Cc4c(F)cccc4Cl)c(=O)n3c2)CC1
798	CC(=O)N1CCCc2ccc(NC(=O)COc3ccc(F)cc3)cc21
1330	Cc1ccc(Sc2nccnc2N2CCC(C(=O)N3CCN(c4ccccc4C)CC3)CC2)cc1
670	CC(C)c1cc(N2CCN(c3ccccn3)CC2)n2ncc(-c3ccccc3)c2n1

RP-LC retention time [s]	Compound
642	COc1ccc(NC(=O)CSc2ccc(N3CCCC(C(=O)NC4CC4)C3)nn2)c(OC)c1 (centres undefined)
1290	Clc1ccc(Sc2c(-c3ccc(Br)cc3)nc3ccccn23)cc1
846	Cc1cccc(CNC2=NCCNC23CCN(S(=O)(=O)c2c(C)cc(C)cc2C)CC3)c1
648	COc1ccc(Br)c(C(=O)N2CCc3[nH]cnc3C23CCCC3)c1
785	CCCc1noc(-c2cccnc2N2CCCN(Cc3cccc(C(F)(F)F)c3)CC2)n1
699	CC(=O)Nc1nc(N2CCC(C(=O)NCc3ccccc3)CC2)sc1C(=O)N1CCCC1
992	COc1ccc(CCNC(=O)C2CCN(S(=O)(=O)N(CC(C)C)CC(C)C)CC2)cc1OC
711	O=C(Nc1nnc(C2CC(=O)N(c3ccc(F)cc3)C2)o1)c1ccccc1 (centres undefined)
643	CC(NC(=O)c1cccc2c1CCN2C(=O)Nc1ccccc1)c1cccnc1 (centres undefined)
731	COc1ccc(S(=O)(=O)N(C)C2CCc3nn(CC4CC4)c(=O)n3CC2)cc1OC (centres undefined)
906	CCOc1ccc(N2C(=O)C3N=NN(Cc4nc(-c5ccc(OC)c(OC)c5)no4)C3C2=O)cc1 (centres undefined)
590	CN(C)CCNC(=O)c1ccc(CS(=O)c2ccc(Br)cc2)o1 (centres undefined)
808	CC1CCN(c2cc(-c3noc(C(=O)NCc4ccco4)n3)ccn2)CC1
1090	Cc1nn(C(=O)C(C)(C)C)c(C)c1S(=O)(=O)N1CCOCC1
654	CCN(CC)Cc1ccc2cc(COC(=O)Nc3ccc(C(=O)NO)cc3)ccc2c1
627	Cc1cccc2c1ncn1c(=O)n(CC(=O)NCc3ccccc3Cl)nc21
1060	O=C(Cc1cccc(F)c1)N1CCc2nc(-c3ccc(Cl)cc3)ncc2C1
816	COC(=O)c1ncn2c1C(=O)N(Cc1ccccc1F)C(C)(C(=O)NC1CCCCCC1)C2 (centres undefined)
963	CCC1Oc2ccc(S(=O)(=O)N3CCC(C(=O)NCc4ccc(C)cc4)CC3)cc2NC1=O (centres undefined)
828	Cc1cccc(N2CCN(CC(O)COc3ccccc3Cl)CC2)c1 (centres undefined)
